Experimental data from patent US20030083336A1, “Phenylpiperazinyl derivatives” (H. Lundbeck A/S, priority 1999, published 2003).

Tests used:
[1] = biological target: T1, human cloned dopamine D4.2 receptors (Homo sapiens, UniProt P21917, DEL265-296); assay: Inhibition of the binding of 3H-YM-09151-2 to human dopamine D4 receptors; details: [3H]YM-09151-2 0.06 nM, membranes of CHO-cells; read-out: D4-bind. IC50
T1 construct: expressed in transfected cells; host or cells: CHO cells
T1 sequence (P21917 with tags, fused parts or gaps DEL265-296): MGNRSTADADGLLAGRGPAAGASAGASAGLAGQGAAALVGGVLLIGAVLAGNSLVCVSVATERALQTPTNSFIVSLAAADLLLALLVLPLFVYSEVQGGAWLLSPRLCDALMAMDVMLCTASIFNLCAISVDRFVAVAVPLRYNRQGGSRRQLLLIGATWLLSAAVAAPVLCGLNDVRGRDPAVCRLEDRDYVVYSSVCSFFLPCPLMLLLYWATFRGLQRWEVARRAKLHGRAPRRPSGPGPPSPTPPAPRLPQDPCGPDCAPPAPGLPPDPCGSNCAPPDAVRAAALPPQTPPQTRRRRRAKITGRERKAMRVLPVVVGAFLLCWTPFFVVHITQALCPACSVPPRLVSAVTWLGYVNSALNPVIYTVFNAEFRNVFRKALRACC
Method: Inhibition of the Binding of ^3H-YM-09151-2 to Human Dopamine D4 Receptors
By this method the inhibition by drugs of the binding of [^3H]YM-09151-2 (0.06 nM) to membranes of human cloned dopamine D4.2 receptors expressed in CHO-cells is determined in vitro. Method modified from NEN Life Science Products, Inc., technical data certificate PC2533-10/96. The results are given in the following Table 1 as IC50-values or as percent inhibition of the binding of ^3H-YM-09151 -2 at the concentration of the test compound indicated.

[2] = biological target: T2, human cloned dopamine D3 receptors (Homo sapiens, UniProt P35462); assay: Inhibition of the binding of [3H]-Spiperone to human D3 receptors; details: [3H]Spiperone 0.3 nM, membranes of CHO-cells; read-out: D3-bind. IC50
T2 construct: expressed in transfected cells; host or cells: CHO cells
T2 sequence (P35462 whole entry): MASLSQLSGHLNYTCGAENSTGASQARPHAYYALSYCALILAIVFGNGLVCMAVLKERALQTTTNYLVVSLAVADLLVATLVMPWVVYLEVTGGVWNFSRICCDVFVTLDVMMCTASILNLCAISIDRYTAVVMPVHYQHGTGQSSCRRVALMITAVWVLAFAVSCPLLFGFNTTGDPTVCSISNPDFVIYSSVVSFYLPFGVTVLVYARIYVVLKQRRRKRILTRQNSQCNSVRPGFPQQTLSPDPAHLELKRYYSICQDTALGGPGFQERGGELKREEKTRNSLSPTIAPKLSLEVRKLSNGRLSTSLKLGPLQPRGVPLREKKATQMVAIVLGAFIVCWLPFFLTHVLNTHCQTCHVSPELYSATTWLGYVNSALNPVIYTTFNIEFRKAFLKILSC
Method: Inhibition of the Binding of [^3H]-Spiperone to Human D3 Receptors
By this method the inhibition by drugs of the binding [^3H]Spiperone (0.3 nM) to membranes of human cloned dopamine D3 receptors expressed in CHO-cells is determined in vitro. Method modified from R. G. MacKenzie et al. Eur. J. Pharm.-Mol. Pharm. Sec. 1994, 266, 79-85. The results are given in the following Table 1 as IC50-values or as percent inhibition of the binding of ^3H-Spiperone at the concentration of the test compound indicated.

D4 receptor = biological target: T3, D4 receptor (Homo sapiens, UniProt P21917); details: various in vitro efficacy assays; cited from earlier work
T3 sequence (P21917 1-419): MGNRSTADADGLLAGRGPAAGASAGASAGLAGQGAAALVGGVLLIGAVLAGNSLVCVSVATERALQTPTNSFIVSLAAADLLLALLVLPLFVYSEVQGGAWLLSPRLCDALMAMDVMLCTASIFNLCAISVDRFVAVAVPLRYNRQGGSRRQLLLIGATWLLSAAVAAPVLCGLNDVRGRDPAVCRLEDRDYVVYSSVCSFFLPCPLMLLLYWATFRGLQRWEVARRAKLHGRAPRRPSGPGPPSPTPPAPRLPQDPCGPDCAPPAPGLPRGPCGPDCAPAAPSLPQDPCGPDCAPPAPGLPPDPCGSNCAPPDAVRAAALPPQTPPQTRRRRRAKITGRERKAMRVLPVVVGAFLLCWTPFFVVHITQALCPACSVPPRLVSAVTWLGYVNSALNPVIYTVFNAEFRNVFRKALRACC

IC50 [1] | IC50 [2] | melting point | Compound | Functional activity at D4 receptor (literature) (D4 receptor)
15 nM | 130 nM | 111 to 113 °C | Cc1c(N2CCOCC2)cccc1N1CCN(CCCCc2c[nH]c3ccccc23)CC1 [Compound 1c, 1-[2-methyl-3-(morpholin-4-yl)phenyl]-4-[4-(1H-indol-3-yl)butyl]piperazine] | 
14 nM | 63 nM | 112 to 114 °C | Cc1c(N2CCOCC2)cccc1N1CCN(CCCCc2c[nH]c3ccc(F)cc23)CC1 [Compound 1e, 1-[2-metlyl-3-(morpholin-4-yl)phenyl]-4-[4-(5-fluoro-1H-indol-3-yl)butyl]piperazine] | 
 |  |  | CC(C)Oc1cccnc1N(C)C1CCN(Cc2ccccc2)CC1 [Compound U-101958] | partial D4 receptor agonists
